Data reported in patent publication US20240294551A1 (AMGEN INC., priority 2022, published 2024).
Structures can show the parent of a compound that is named as a salt.

Key:
[1] = target: His-tagged KRAS G12D protein (Homo sapiens (Human), UniProt P01116, G12D); assay: KRAS G12D TR-FRET Assay; format: binding; settings: read-out: KRAS G12D Binding IC50
Procedure: Compounds of interest were prepared in a dose-response titration in DMSO, and 80 nL were added via Labcyte Echo to each well of a 384-well plate (Perkin Elmer 6008280). The His-tagged KRAS G12D protein (Amgen) was diluted to 20 nM in Assay Buffer (20 mM HEPES, pH 7.4, 10 mM MgCl2, 50 mM NaCl, 0.1% BSA, 0.01% Tween-20, 10 μM GDP) and 2 μL was added to the appropriate wells of the 384-well plate. The plate was incubated for 30 minutes at room temperature. Biotinylated KRPep-2d substrate (Amgen) was diluted to 20 nM in Assay Buffer and 2 μL was added to all wells and incubated for 1 hour at room temperature. Detection Reagent (0.4 nM LANCE Eu-W1024 Anti-6×His (Perkin Elmer AD0401), 5 nM streptavidin-d2 (Cisbio 610SADLA)) was prepared in Assay Buffer, then 4 μL was added to the plate and incubated for 1 hour at room temperature. Plates were read using PerkinElmer EnVision (ex: 320 nm, em1: 665 nm, em2: 615 nm) and em1/em2 data was used to generate curve fits using a 4-parameter logistic model to calculate IC50 values.

[2] = target: GDP-bound KRAS protein (aa 1-169), containing both G12D and C118A amino acid substitutions (Homo sapiens (Human), UniProt P01116, C118A/G12D); assay: KRAS G12D Coupled Nucleotide Exchange Assay; format: biochemical; settings: read-out: KRAS G12D Coupled Exchange IC50
Sequence of GDP-bound KRAS protein (aa 1-169), containing both G12D and C118A amino acid substitutions (P01116 other isoform, or with tags, fused parts or gaps G12D/C118A): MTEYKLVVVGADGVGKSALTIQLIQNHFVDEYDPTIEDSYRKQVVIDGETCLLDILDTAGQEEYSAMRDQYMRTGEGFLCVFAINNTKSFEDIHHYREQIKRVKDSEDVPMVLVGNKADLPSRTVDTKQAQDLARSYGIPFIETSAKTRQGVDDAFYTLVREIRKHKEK
Procedure: KRAS G12D Coupled Nucleotide Exchange Assay
Following compound pre-incubation, purified SOS protein (aa 564-1049) and GTP (Roche 10106399001) were added to the assay wells and incubated for an additional 30 min. To determine the extent of inhibition of SOS-mediated nucleotide exchange, purified GST-tagged cRAF (aa 1-149), nickel chelate AlphaLISA acceptor beads (PerkinElmer AL108R), and AlphaScreen glutathione donor beads (PerkinElmer 6765302) were added to the assay wells and incubated for 10 minutes. The assay plates were then read on a PerkinElmer EnVision Multilabel Reader, using AlphaScreen® technology, and data were analyzed using a 4-parameter logistic model to calculate IC50 values.

Sequence of His-tagged KRAS G12D protein (P01116 other isoform, or with tags, fused parts or gaps G12D): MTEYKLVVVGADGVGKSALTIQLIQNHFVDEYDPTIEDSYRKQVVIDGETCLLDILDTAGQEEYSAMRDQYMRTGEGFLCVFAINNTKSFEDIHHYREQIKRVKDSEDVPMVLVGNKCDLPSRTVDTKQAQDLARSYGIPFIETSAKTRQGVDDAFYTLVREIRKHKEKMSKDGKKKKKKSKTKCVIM

SMILES | IC50 [1] | IC50 [2]
Cc1c2ncc3c(nc(OC[C@]45CC[C@@H](CC4)C(=O)N5)nc13)N1CCC[C@](C)(C1)NC(=O)CCCc1c(F)ccc3cc(O)cc-2c13 [Example 25, (15R)-22-Fluoro-27-hydroxy-15,31-dimethyl-8-(((1s,4s)-3-oxo-2-azabicyclo[2.2.2]octan-1-yl)methoxy)-3,7,9,11,16-pentaazahexacyclo[19.7.1.1˜2,6˜.1˜11,15˜.0˜5,10˜.0˜25,29˜]hentriaconta-1(28),2(31),3,5,7,9,21,23,25(29),26-decaen-17-one] | 10 nM | 7 nM
Cc1c2ncc3c(nc(OCC(C)(C)O)nc13)N1CCC[C@](C)(C1)NC(=O)CCCc1c(F)ccc3cc(O)cc-2c13 [Example 26, (15R)-22-Fluoro-27-hydroxy-8-(2-hydroxy-2-methylpropoxy)-15,31-dimethyl-3,7,9,11,16-pentaazahexacyclo[19.7.1.1˜2,6˜.1˜11,15˜.0˜5,10˜.0˜25,29˜]hentriaconta-1(28),2(31),3,5,7,9,21,23,25(29),26-decaen-17-one] | 124 nM | 109 nM
C[C@@]12CCCN(C1)c1nc(OC[C@@]34CCCN3C[C@H](F)C4)nc3c(F)c(ncc13)-c1cc(O)cc3c1[C@H](CCCC(=O)N2)CCC3 [Example 28, (15R,21S)-31-fluoro-8-(((2R,7aS)-2-fluorotetrahydro-1H-pyrrolo[1,2-a]pyrrol-7a(5H)-yl)methoxy)-27-hydroxy-15-methyl-3,7,9,11,16-pentaazahexacyclo[19.7.1.1˜2,6˜.1˜11,15˜.0˜5,10˜.0˜25,29˜]hentriaconta-1(29),2(31),3,5,7,9,25,27-octaen-17-one 2,2,2-trifluoroacetate salt] | 68 nM | 48 nM
O=C1CCCc2cccc3cccc(c23)-c2ncc3c(nc(OC[C@@]45CCCN4C[C@H](F)C5)nc3c2F)N2CCC[C@H](C2)O1 [Example 29, (15R)-31-Fluoro-8-(((2R,7aS)-2-fluorotetrahydro-1H-pyrrolo[1,2-a]pyrrol-7a(5H)-yl)methoxy)-16-oxa-3,7,9,11-tetraazahexacyclo[19.7.1.1˜2,6˜.1˜11,15˜.0˜5,10˜.0˜25,29˜]hentriaconta-1(28),2(31),3,5,7,9,21,23,25(29),26-decaen-17-one bis(2,2,2-trifluoroacetate)] | 443 nM | 513 nM
Cc1cc2[nH]ncc2c2c1CCCCCC(=O)O[C@@H]1CCCN(C1)c1nc(OC[C@@]34CCCN3C[C@H](F)C4)nc3c(F)c-2ncc13 [Example 34, (18R)-31-fluoro-25-(((2R,7aS)-2-fluorotetrahydro-1H-pyrrolo[1,2-a]pyrrol-7a(5H)-yl)methoxy)-9-methyl-17-oxa-5,6,22,24,26,30-hexaazahexacyclo[25.3.1.1~18,22~.0~2,10~.0~3,7~.0~23,28~]dotriaconta-1(31),2,4,7,9,23,25,27,29-nonaen-16-one] | 220 nM | 177 nM
O=C1OC[C@H]2C[C@H]2c2c(Cl)cc3[nH]ncc3c2-c2ncc3c(nc(OC[C@@]45CCCN4C[C@H](F)C5)nc3c2F)N2CCC[C@H](C2)O1 [Example 46, (11R,13S,18R)-9-chloro-31-fluoro-25-(((2R,7aS)-2-fluorotetrahydro-1H-pyrrolo[1,2-a]pyrrol-7a(5H)-yl)methoxy)-15,17-dioxa-5,6,22,24,26,30-hexaazaheptacyclo[25.3.1.1˜18,22˜.0˜2,10˜.0˜3,7˜.0˜11,13˜.0˜23,28˜]dotriaconta-1(31),2,4,7,9,23,25,27,29-nonaen-16-one bis(2,2,2-trifluoroacetate)] | 12 nM | 10 nM
O=C1CCCCc2c(Cl)cccc2-c2ncc3c(nc(OC[C@@]45CCCN4C[C@H](F)C5)nc3c2F)N2CCC[C@H](C2)N1 [Example 59, (23R)-15-chloro-28-fluoro-4-(((2R,7aS)-2-fluorotetrahydro-1H-pyrrolo[1,2-a]pyrrol-7a(5H)-yl)methoxy)-1,3,5,9,22-pentaazapentacyclo[21.3.1.1~6,10~.0~2,7~.0~11,16~]octacosa-2,4,6,8,10(28),11,13,15-octaen-21-one] | 651 nM | 481 nM
O=C1CCCc2c(F)ccc3cccc(c23)-c2ncc3c(nc(OC[C@@]45CCCN4C[C@H](F)C5)nc3c2F)N2CCOC[C@H](C2)N1 [Example 70, (16S)-23,32-difluoro-8-(((2R,7aS)-2-fluorotetrahydro-1H-pyrrolo[1,2-a]pyrrol-7a(5H)-yl)methoxy)-14-oxa-3,7,9,11,17-pentaazahexacyclo[20.7.1.1~2,6~.1~11,16~.0~5,10~.0~26,30~]dotriaconta-1(29),2(32),3,5,7,9,22,24,26(30),27-decaen-18-one] | 277 nM | 274 nM
O=C1CCCc2c(F)ccc3cccc(c23)-c2ncc3c(nc(OC[C@@]45CCCN4C[C@H](F)C5)nc3c2F)N2CC[C@@H]3CCN1[C@@H]3C2 [Example 71, (27R,31S)-18,33-Difluoro-4-(((2R,7aS)-2-fluorotetrahydro-1H-pyrrolo[1,2-a]pyrrol-7a(5H)-yl)methoxy)-1,3,5,9,24 pentaazaheptacyclo[22.5.2.1˜6,10˜.1˜11,15˜.0˜2,7˜.0˜19,32˜.0˜27,31˜]tritriaconta-2,4,6,8,10(33),11,13,15(32),16,18-decaen-23-one] | 306 nM | 119 nM
C[C@]12CCCN(C1)c1nc(OC[C@@]34CCCN3C[C@H](F)C4)nc3c(F)c(ncc13)-c1cccc3ccc(F)c(c13)CCOC(=O)N2 [Example 78, (15S)-22,31-difluoro-8-(((2R,7aS)-2-fluorotetrahydro-1H-pyrrolo[1,2-a]pyrrol-7a(5H)-yl)methoxy)-15-methyl-18-oxa-3,7,9,11,16-pentaazahexacyclo[19.7.1.1~2,6~.1~11,15~.0~5,10~.0~25,29~]hentriaconta-1(29),2(31),3,5,7,9,21,23,25,27-decaen-17-one] | 3810 nM | 2100 nM
O=C1CCCc2c(F)ccc3cccc(c23)-c2ncc3c(nc(OC[C@@]45CCCN4C[C@H](F)C5)nc3c2F)N2CCOC[C@H](C2)O1 [Example 109] | 180 nM | 196 nM
C[C@@]12CCCN(C1)c1nc(OC[C@@]34CCCN3C[C@H](F)C4)nc3c(F)c(ncc13)-c1cccc3cccc(c13)CCCOC(=O)O2 [Example 121] | 508 nM | 422 nM
Cc1cc2[nH]ncc2c2c1CCCCCO[C@@H]1CCCN(C1)c1nc(OC[C@@]34CCCN3C[C@H](F)C4)nc3c(F)c-2ncc13 [Example 132] | 70 nM | 67 nM
Cc1cc2[nH]ncc2c2c1CC/C=C\CO[C@@H]1CCCN(C1)c1nc(OC[C@@]34CCCN3C[C@H](F)C4)nc3c(F)c-2ncc13 [Example 133] | 241 nM | 240 nM
Cc1cc2[nH]ncc2c2c1CC/C=C/CO[C@@H]1CCCN(C1)c1nc(OC[C@@]34CCCN3C[C@H](F)C4)nc3c(F)c-2ncc13 [Example 134] | 56 nM | 59 nM
Fc1c2ncc3c(nc(OC[C@@]45CCCN4C[C@H](F)C5)nc13)N1CCC[C@H](C1)Cn1cc(nn1)CCc1c(Cl)cc3[nH]ncc3c1-2 [Example 146] | 77 nM | 65 nM
Fc1c2ncc3c(nc(OC[C@@]45CCCN4C[C@H](F)C5)nc13)N1CCO[C@@H](COCCOCc3c(Cl)cc4[nH]ncc4c3-2)C1 [Example 152, (17R)-9-chloro-30-fluoro-24-(((2R,7aS)-2-fluorotetrahydro-1H-pyrrolo[1,2-a]pyrrol-7a(5H)-yl)methoxy)-12,15,18-trioxa-5,6,21,23,25,29 hexaazahexacyclo[24.3.1.1~17,21~.0~2,10~.0~3,7~.0~22,27~]hentriaconta-1(30),2,4,7,9,22,24,26,28-nonaene] | 71 nM | 56 nM
O=C1CCCCc2c(Cl)cccc2-c2ncc3c(nc(OC[C@@]45CCCN4C[C@H](F)C5)nc3c2F)N2CC[C@@H]3CCN1[C@@H]3C2 [Example 163, (25R,29S)-15-chloro-30-fluoro-4-(((2R,7aS)-2-fluorotetrahydro-1H-pyrrolo[1,2-a]pyrrol-7a(5H)-yl)methoxy)-1,3,5,9,22-pentaazahexacyclo[20.5.2.1~6,10~.0~2,7~.0~11,16~.0~25,29~]triaconta-2,4,6,8,10(30),11,13,15-octaen-21-one] | 2840 nM | 1570 nM
C[C@]12CCCCN(C1)c1nc(OC[C@@]34CCCN3C[C@H](F)C4)nc3c(F)c(ncc13)-c1c(c(Cl)cc3[nH]ncc13)CCCCC(=O)N2 [Example 165, (26S)-18-chloro-32-fluoro-4-(((2R,7aS)-2-fluorotetrahydro-1H-pyrrolo[1,2-a]pyrrol-7a(5H)-yl)methoxy)-26-methyl-1,3,5,9,14,15,25-heptaazahexacyclo[24.4.1.1~6,10~.0~2,7~.0~11,19~.0~12,16~]dotriaconta-2,4,6,8,10(32),11,13,16,18-nonaen-24-one] | 12700 nM | 4430 nM
